According to patent US5036098A, “Butynylamine derivatives and their production” (Nippon Shinyaku Co., Ltd., priority 1988, dated 1991):
Where a name gives a salt, the structure may show the parent alone.

What was measured:
[1] = molecular target: detrusor muscles of excised rabbit bladder (Oryctolagus cuniculus, UniProt G1U308)
Source text: 1. Action upon detrusor muscles of excised rabbit bladder
(1) Anticholinergic action
The specimens were contracted by carbachol cumulation, and a reaction curve with respect to carbachol concentration was obtained.

in vivo = conditions: rat, iv, 3 mg/kg
Experimental: 4. Concentration of unchanged drug in the serum
A drug being tested was administered to an SD rat (male; 280 to 360 g) in a dose of 3 mg/kg (i.v.), blood samples were taken out at predetermined intervals, and the change in the concentration of said drug left unchanged in the serum was measured.

[2] = prior art statement; cited from earlier work
rat bladder = conditions: for Frequency (cycles of contraction per minute), 0.1 mg/kg (i.v.) / Frequency (cycles of contraction per minute), 0.3 mg/kg (i.v.) / Frequency (cycles of contraction per minute), 1.0 mg/kg (i.v.) / Frequency (cycles of contraction per minute), 3.0 mg/kg (i.v.): 0 to 15 minutes, cumulative administration; for Frequency (cycles of contraction per minute), 1.0 mg/kg (i.v.): *p < 0.05; for Frequency (cycles of contraction per minute), 3.0 mg/kg (i.v.): **p < 0.01; for Frequency (cycles of contraction per minute), before administration: before administration (baseline); for action to suppress the frequency of contraction: i.v., cumulative, result in words
[3] = system: detrusor muscles of excised rabbit bladder; assay: Ca++ antagonism upon detrusor muscles of excised rabbit bladder (calcium chloride contraction); conditions: for pA2 value, Ca++ Antagonism: calcium chloride cumulation, Ca++-free, high KCl-modified Krebs' solution, excised rabbit detrusor
Acute toxicity = assay: Acute toxicity; design: species or system mice; conditions: mouse, in vivo, po; mortality one week later, method of Weil
Experimental: ddY-Mice (male; 6 to 7 week age) were used as test animals (each group consisting of four mice). Each of the mice was fasted from the previous day (16 to 18 hours before), a drug being tested was orally administered by using a gastric tube, and LD50 value was calculated from the mortality one week later according to the method of Weil.

Chain of detrusor muscles of excised rabbit bladder (Oryctolagus cuniculus, UniProt G1U308) (G1U308 entry or part of it): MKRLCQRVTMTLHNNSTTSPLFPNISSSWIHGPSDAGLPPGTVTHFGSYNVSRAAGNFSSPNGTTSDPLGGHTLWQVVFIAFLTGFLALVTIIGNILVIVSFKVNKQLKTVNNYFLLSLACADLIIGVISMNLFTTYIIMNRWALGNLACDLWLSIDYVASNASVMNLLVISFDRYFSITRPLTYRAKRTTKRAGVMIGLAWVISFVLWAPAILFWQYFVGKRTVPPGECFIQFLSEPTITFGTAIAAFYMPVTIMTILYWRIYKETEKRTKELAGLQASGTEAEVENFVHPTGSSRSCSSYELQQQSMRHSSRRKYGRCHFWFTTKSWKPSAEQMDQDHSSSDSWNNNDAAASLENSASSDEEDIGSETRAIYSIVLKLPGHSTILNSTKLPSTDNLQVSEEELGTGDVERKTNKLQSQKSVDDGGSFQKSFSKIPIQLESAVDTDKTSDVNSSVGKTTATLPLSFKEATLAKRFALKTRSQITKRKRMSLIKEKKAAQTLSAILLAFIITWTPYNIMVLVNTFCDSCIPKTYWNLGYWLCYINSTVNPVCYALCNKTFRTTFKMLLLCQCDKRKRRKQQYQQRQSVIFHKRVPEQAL

## CCN(CC)CC#CCOC(=O)C(O)(c1ccccc1)C1CCCCC1 (centres unmarked) [Oxybutynin, oxybutynin, reference compound]
[1]
  Kb: 2.75 nM
In vivo
  half-life: 16.8 min
[2]
  side effects: exhibits side effects such as thirst
Rat bladder
  Frequency (cycles of contraction per minute), 0.1 mg/kg (i.v.): 1.1 ± 0.2 cycles of contraction per minute
  Frequency (cycles of contraction per minute), 0.3 mg/kg (i.v.): 1.0 ± 0.2 cycles of contraction per minute
  Frequency (cycles of contraction per minute), 1.0 mg/kg (i.v.): 1.2 ± 0.1 cycles of contraction per minute
  Frequency (cycles of contraction per minute), 3.0 mg/kg (i.v.): 1.2 ± 0.2 cycles of contraction per minute
  Frequency (cycles of contraction per minute), before administration: 1.0 ± 0.1 cycles of contraction per minute
  action to suppress the frequency of contraction: no such action was observed
[3]
  pA2 value, Ca++ Antagonism: 5.80

## CCN(CC)CC#CC(C)(C)OC(=O)C(O)(c1ccccc1)C1CCCCC1 (stereo not drawn) [Example 4, 4-diethylamino-1.1-dimethyl-2-butynyl α-cyclohexylα-phenylglycolate hydrochloride]
[1]
  Kb: 46.8 nM
[1]; ratio to oxybutynin
  anticholinergic action compared with oxybutynin: 1/17
Acute toxicity
  LD50 at 168 h: 841 mg/kg
In vivo
  half-life: 51 min
Rat bladder
  Frequency (cycles of contraction per minute), 0.1 mg/kg (i.v.): 1.1 ± 0.3 cycles of contraction per minute
  Frequency (cycles of contraction per minute), 0.3 mg/kg (i.v.): 0.8 ± 0.2 cycles of contraction per minute
  Frequency (cycles of contraction per minute), 1.0 mg/kg (i.v.): 0.3 ± 0.1 cycles of contraction per minute
  Frequency (cycles of contraction per minute), 3.0 mg/kg (i.v.): 0.0 ± 0.0 cycles of contraction per minute
  Frequency (cycles of contraction per minute), before administration: 1.3 ± 0.3 cycles of contraction per minute
  action to suppress the frequency of contraction: dose-dependent action to suppress the frequency of contraction
Rat bladder; Rattus norvegicus, iv, read-out: doses showing action to suppress the frequency of contraction
  minimal effective dose: ≥ 0.1 mg/kg
[3]
  pA2 value, Ca++ Antagonism: 6.72
[3]; ratio to oxybutynin
  Ca++ antagonism compared with oxybutynin: 8.3 times
